Data: patent US20060135432A1, “Agonists and antagonists of conadotropin-releasing hormone-2, and use thereof” (priority 2002, published 2006)
One block for each compound: values may come before it. Where a SMILES comes first, the peptide text is derived from it. [ ]: non-standard residue; d: D form. dPhe(4-Cl) = N[C@H](Cc1ccc(Cl)cc1)C(=O)O; d2Nal = N[C@H](Cc1ccc2ccccc2c1)C(=O)O; dCit = NC(=O)NCCC[C@@H](N)C(=O)O; d3Pal = N[C@H](Cc1cccnc1)C(=O)O; pGlu = O=C1CC[C@@H](C(=O)O)N1

Columns and labels:
rat GnRHR [1] = biological target: T1, rat GnRHR (Rattus norvegicus, UniProt P30969); experiment: Inhibition of GnRH-1-induced IP production in GH3 cells expressing rat GnRHR; type: cell-based
T1 construct: expressed in transfected cells; host or cells: GH3 cells, retroviral infection
T1 sequence (P30969 1-327): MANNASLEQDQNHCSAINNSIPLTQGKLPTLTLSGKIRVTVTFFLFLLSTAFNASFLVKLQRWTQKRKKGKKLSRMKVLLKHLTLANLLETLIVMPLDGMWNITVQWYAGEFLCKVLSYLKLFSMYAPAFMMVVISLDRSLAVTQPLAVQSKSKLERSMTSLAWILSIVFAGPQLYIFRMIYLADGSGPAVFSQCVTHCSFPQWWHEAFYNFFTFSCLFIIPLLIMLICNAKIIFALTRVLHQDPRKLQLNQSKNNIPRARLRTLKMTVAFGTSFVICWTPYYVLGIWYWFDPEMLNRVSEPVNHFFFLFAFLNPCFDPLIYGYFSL
Protocol: GH3 cell lines were obtained from the Cell Line Bank at the Cancer Research Center, Seoul National University College of Medicine, located in Seoul, Republic of Korea. The GH3 cell lines were infected with retroviruses comprising genes encoding bfGnRHR-1, bfGnRHR-2, and bfGnRHR-3 which are bullfrog GnRH receptors, and rat GnRHR, and cell lines expressing each of these receptors were obtained. The GH3 cells expressing bfGnRHR-1, bfGnRHR-2, bfGnRHR-3, and rat GnRHR were cultured on 12-well plates. After 24 hours, the cells were cultured again for 24 hours in a media containing no inositol, to which H^3-myoinositol was added. The resultant cells were washed with buffer A (140 mM NaCl, 20 mM HEPES, 4 mM KCl, 8 mM D-Glucose, 1 mM MgCl2, 1 mM CaCl2, 1 mg/ml BSA) and then cultured in buffer A containing 10 mM LiCl at 37°C. for 30 minutes. Thereafter, they were treated with GnRH having a suitable concentration, cultured at 37° C. for another 30 minutes, and then the media was eliminated. The cells were treated with 10 mM of ice-cold formic acid to terminate the reaction, and the cell extracts were mixed with Dowex anionic exchange resins. These resins were washed with distilled water, IP was extracted with 1 M ammonium formate/0.1 M formic acid, and cpm (count per minute) was determined.
However, Trptorelix-1 could reduce the production of IP induced by 1 nM GnRH-2, in a concentration-dependent manner (FIG. 6a to FIG. 6c).

Primate GnRH-2 receptor [2] = experiment: Inhibition of GnRH-2-induced c-fos-luc luciferase activity in cells expressing Primate GnRH-2 receptor; type: cell-based; conditions: treated at the same time as GnRH-2
Protocol: (§1) Complimentary DNA (cDNA) for a Primate GnRH-2 receptor was obtained from a CV-1 cell genome. […] Plasmids having Primate GnRH-2 receptors where transfected into CV-1 cells. To assay the activity of the receptor, c-fos-luc where a luciferase gene is fused with a c-fos promoter was co-transfected as a probe gene. After 48 hours from transfection, the cells were treated with GnRH-2 agonists and then the activity of luciferase was assayed (Seong et al., Endocrinology vol 144 2003, 454-466).
In the same manner as in 2-3 above, Primate GnRH-2 receptors were co-transfected along with c-fos-luc reporter genes, and after 48 hours, GnRH-2 and GnRH-2 antagonists were treated thereinto at the same time and then the effect of GnRH-2 antagonists was observed.

rat GnRHR [3] = biological target: T1, rat GnRHR; experiment: Inositol phosphate (IP) production in GH3 cells expressing rat GnRHR; type: cell-based; conditions: for EC50: GH3 cells, 30 min, given as log EC50 (negative values)
From the text: The GnRH receptor, a membrane protein connected with the G protein, activates the G protein when activated by a ligand, and the activated G protein activates phospholipase C and thereby the synthesis of inositol phosphate (IP), which is the second transmitter in cells, is increased. Based on this principle, the activity of a receptor can be investigated by measuring the amount of IP within cells. GH3 cell lines were obtained from the Cell Line Bank at the Cancer Research Center, Seoul National University College of Medicine, located in Seoul, Republic of Korea. The GH3 cell lines were infected with retroviruses comprising genes encoding […]-2, and bfGnRHR-3 which are bullfrog GnRH receptors, and rat GnRHR, and cell lines expressing each of these receptors were obtained. The GH3 cells expressing […]-3, and rat GnRHR were cultured on 12-well plates. After 24 hours, the cells were cultured again for 24 hours in a media containing no inositol, to which H^3-myoinositol was added. […] Thereafter, they were treated with GnRH having a suitable concentration, cultured at 37° C. for another 30 minutes, and then the media was eliminated. The cells were treated with 10 mM of ice-cold formic acid to terminate the reaction, and the cell extracts were mixed with Dowex anionic exchange resins. These resins were washed with distilled water, IP was extracted with 1 M ammonium formate/0.1 M formic acid, and cpm (count per minute) was determined. The GH3 cell lines were infected with retroviruses comprising genes encoding […]-2, and bfGnRHR-3 which are bullfrog GnRH receptors, and rat GnRHR, and cell lines expressing each of these receptors were obtained.

TSU-Pri cells = experiment: Binding of radiolabeled GnRH to TSU-Pri prostate cancer cells; set-up: species or system human; conditions: room temperature, 6 hours
Protocol: TSU-Pri, which is one of the prostate cancer cell lines, was cultured along with the radiolabeled I^125GnRH-1 and I^125GnRH-2. […] The radiolabeled GnRH and the cells were cultured at room temperature for 6 hours, and then washed with PBS (phosphate-buffered saline) several times to eliminate the unbound GnRH. Thereafter, the cells were isolated and radioactivity from the cells was measured using a y-counter.

rat GnRHR [4] = biological target: T1, rat GnRHR; experiment: I125-GnRH-2 competitive ligand-receptor binding, membranes of GH3 cells expressing rat GnRHR; conditions: competition with I125-GnRH-2, 4 °C, 16 hours; read-out: Binding affinity (log IC50 value) (converted)
Protocol: To determine the binding affinity between GnRH and GnRH receptors, GnRH-2 was radiolabeled with I^125. […] After 48 hours, the cells were homogenized to obtain cellular membranes, which were then dissolved in binding buffer (40 mM Tris, pH 7.4, 2 mM MgCl2). 20 μg of membrane proteins were reacted with I^125-GnRH-2 at 4° C. for 16 hours. […] After the reaction was completed, 1^125-GnRH-2 bound to the receptors was filtered using a Brandel harvester, and cpm was measured using a y-counter.

bfGnRHR-1 = experiment: Inositol phosphate (IP) production in GH3 cells expressing bfGnRHR-1; type: cell-based, bullfrog
From the text: The GnRH receptor, a membrane protein connected with the G protein, activates the G protein when activated by a ligand, and the activated G protein activates phospholipase C and thereby the synthesis of inositol phosphate (IP), which is the second transmitter in cells, is increased. Based on this principle, the activity of a receptor can be investigated by measuring the amount of IP within cells. GH3 cell lines were obtained from the Cell Line Bank at the Cancer Research Center, Seoul National University College of Medicine, located in Seoul, Republic of Korea. The GH3 cell lines were infected with retroviruses comprising genes encoding […]-2, and bfGnRHR-3 which are bullfrog GnRH receptors, and rat GnRHR, and cell lines expressing each of these receptors were obtained. The GH3 cells expressing […]-3, and rat GnRHR were cultured on 12-well plates. After 24 hours, the cells were cultured again for 24 hours in a media containing no inositol, to which H^3-myoinositol was added. […] Thereafter, they were treated with GnRH having a suitable concentration, cultured at 37° C. for another 30 minutes, and then the media was eliminated. […] These resins were washed with distilled water, IP was extracted with 1 M ammonium formate/0.1 M formic acid, and cpm (count per minute) was determined. […]

Primate GnRH-2 receptor [5] = experiment: c-fos-luc luciferase activation in CV-1 cells expressing Primate GnRH-2 receptor; type: cell-based
Protocol: as §1
Of the GnRH-2 receptors, [D-Ala^6]GnRH-2 performed excellently, showing effects about 3 times that of a wild-type ligand, GnRH-2. […] When analogs where the 5th, 7th, and 8th amino acids of [D-Ala^6]GnRH-2 are substituted were used, it was observed that their effects were weaker than [D-Ala^6]GnRH-2, and therefore it can be seen that it is important to maintain His, Trp, and Tyr that are found at the 5th, 7th, and 8th positions of GnRH-2 as they are (FIG. 3b).

Compound: CC(=O)N[C@H](Cc1ccc2ccccc2c1)C(=O)N[C@H](Cc1ccc(Cl)cc1)C(=O)N[C@H](Cc1cccnc1)C(=O)N[C@@H](CO)C(=O)N[C@@H](Cc1ccc(O)cc1)C(=O)N[C@H](CCCNC(N)=O)C(=O)N[C@@H](CC(C)C)C(=O)N[C@@H](CCCNC(=N)N)C(=O)N1CCC[C@H]1C(=O)N[C@H](C)C(N)=O [Cetrorelix, Ac-D-2Nal-(4Cl)-D-Phe-D-3Pal-Ser-Tyr-D-Cit-Leu-Arg-Pro-D-Ala-NH2, reference compound] (Ac-[d2Nal][dPhe(4-Cl)][d3Pal]SY[dCit]LRP[dA]-NH2)
IC50 (rat GnRHR [1]): 0.00933 nM
effect on luciferase activity induced by GnRH-2 (Primate GnRH-2 receptor [2]): no effect

EC50 (rat GnRHR [3]): 8.71 nM
sensitivity compared with GnRH-1 (rat GnRHR [3]; rat GnRHR): a sensitivity lower than 10-fold
IC50 (rat GnRHR [4]): 832 nM
Compound: NC(=O)CNC(=O)[C@@H]1CCCN1C(=O)[C@H](Cc1ccc(O)cc1)NC(=O)[C@H](Cc1c[nH]c2ccccc12)NC(=O)CNC(=O)[C@H](Cc1c[nH]cn1)NC(=O)[C@H](CO)NC(=O)[C@H](Cc1c[nH]c2ccccc12)NC(=O)[C@H](Cc1c[nH]cn1)NC(=O)[C@@H]1CCC(=O)N1 [GnRH-2] ([pGlu]HWSHGWYPG-NH2)
binding of the radiolabeled ligand to TSU-Pri cells (TSU-Pri cells): binding with cells was observed
effect of unradiolabeled competitor on binding of radiolabeled GnRH-2 to TSU-Pri cells (TSU-Pri cells): the binding was reduced

Compound: CC(=O)N[C@H](Cc1ccc2ccccc2c1)C(=O)N[C@H](Cc1ccc(Cl)cc1)C(=O)N[C@H](Cc1cccnc1)C(=O)N[C@@H](CO)C(=O)N[C@@H](Cc1c[nH]cn1)C(=O)N[C@H](CCCNC(N)=O)C(=O)N[C@@H](Cc1c[nH]c2ccccc12)C(=O)N[C@@H](Cc1ccc(O)cc1)C(=O)N1CCC[C@H]1C(=O)N[C@H](C)C(N)=O [Trptorelix-2, Ac-D2Nal-(4Cl)D-Phe-D-3Pal-Ser-His-DCit-Trp-Tyr-Pro-DAla-NH2] (Ac-[d2Nal][dPhe(4-Cl)][d3Pal]SH[dCit]WYP[dA]-NH2)
effect on luciferase activity induced by GnRH-2 (Primate GnRH-2 receptor [2]): reduced in a concentration-dependent manner

EC50 (rat GnRHR [3]): 12 nM
IC50 (rat GnRHR [4]): 97.7 nM
Compound: NC(=O)CNC(=O)[C@@H]1CCCN1C(=O)[C@H](Cc1ccc(O)cc1)NC(=O)[C@H](Cc1c[nH]c2ccccc12)NC(=O)[C@@H](Cc1c[nH]c2ccccc12)NC(=O)[C@H](Cc1c[nH]cn1)NC(=O)[C@H](CO)NC(=O)[C@H](Cc1c[nH]c2ccccc12)NC(=O)[C@H](Cc1c[nH]cn1)NC(=O)[C@@H]1CCC(=O)N1 [[D-Trp^6]GnRH-2, reference compound] ([pGlu]HWSH[dW]WYPG-NH2)
concentration activating bfGnRHR-1, fold lower than GnRH-2 (bfGnRHR-1): similar
effect reduced, fold, as compared with GnRH-2 (Primate GnRH-2 receptor [5]): ~1.2 fold

Compound: Ac-D2Nal-(4Cl)D-Phe-D-3Pal-Ser-Tyr-DCit-Trp-Leu-Pro-DAla-NH2 (Ac-[d2Nal][dPhe(4-Cl)][d3Pal]SY[dCit]WLP[dA]-NH2; SMILES CC(=O)N[C@H](Cc1ccc2ccccc2c1)C(=O)N[C@H](Cc1ccc(Cl)cc1)C(=O)N[C@H](Cc1cccnc1)C(=O)N[C@@H](CO)C(=O)N[C@@H](Cc1ccc(O)cc1)C(=O)N[C@H](CCCNC(N)=O)C(=O)N[C@@H](Cc1c[nH]c2ccccc12)C(=O)N[C@@H](CC(C)C)C(=O)N1CCC[C@H]1C(=O)N[C@H](C)C(N)=O) [Trptorelix-3]
effect on luciferase activity induced by GnRH-2 (Primate GnRH-2 receptor [2]): no effect

Compound: [D-Ala^6]GnRH-1: the agonist of GnRH-1 [reference compound]
sensitivity as compared with GnRH-2 (Primate GnRH-2 receptor [5]): very low sensitivity

Compound: p-Glu-His-Trp-Ser-His-D-Lys-Trp-Tyr-Pro-Gly-NH2 ([pGlu]HWSH[dK]WYPG-NH2; SMILES NCCCC[C@@H](NC(=O)[C@H](Cc1c[nH]cn1)NC(=O)[C@H](CO)NC(=O)[C@H](Cc1c[nH]c2ccccc12)NC(=O)[C@H](Cc1c[nH]cn1)NC(=O)[C@@H]1CCC(=O)N1)C(=O)N[C@@H](Cc1c[nH]c2ccccc12)C(=O)N[C@@H](Cc1ccc(O)cc1)C(=O)N1CCC[C@H]1C(=O)NCC(N)=O) [[D-Lys^6]GnRH-2]
effect reduced, fold, as compared with GnRH-2 (Primate GnRH-2 receptor [5]): about 1.5 fold
